System: T1, PbzB
T1 construct: recombinant, His-SUMO-tag, expressed in and purified from E. coli BL21(DE3); homodimer (apo crystal structure)
Test: steady-state kinetics of 2-hydroxymethylserine formation (LC-MS)
Type: biochemical, Pseudomonas chlororaphis subsp. piscium
Conditions: cofactors PLP and 5,10-methylenetetrahydrofolate (mTHF); potassium phosphate buffer pH 7.5 (stated for the glycine assay; same condition for serine)

Row | Km [µM] | SMILES
1 | 69.52 ± 0.03 | N[C@@H](CO)C(=O)O [L-serine]
2 | 603 ± 56.7 | N[C@H](CO)C(=O)O [D-serine]

— paper PMC10098953, “Genome Mining Enabled by Biosynthetic Characterization Uncovers a Class of Benzoxazolinate‐Containing Natural Products in Diverse Bacteria” (Angewandte Chemie (International Ed. in English), 2022)
